Assays:
Assay type in all cases: cell-based
CD (cathepsin D) [1] = assay: Western blot analysis of CD level, MCF7
Procedure: (§1) The breast cancer cell line (MCF7) of Section 1-1, taken 4 days after irradiation exposure was applied to the cells, was washed with PBS, and the cell sample was subjected to protein extraction using a cell lysis buffer (50 mM Tri-HCl, 1% NP-40, 0.25% sodium deoxycholate, 150 mM NaCl, 1 mM PMSF, 50 mM NaF, 0.2 mM Na3VO4, 10 g/mL aprotinin, and 2 g/mL leupeptin). The extracted protein was centrifuged at 11,000 rpm for 10 min. The supernatant was collected and subjected to quantitative analysis using Bradford protein assay (Bradford, M., Anal. Biochem. 72:248-254 (1976)). 20 μg of the protein was added to 2× SDS loading buffer (60 mm Tris-Cl (pH 6.8), 25% glycerol, 2% SDS, 14.4 mM mercaptoethanol, and 0.1% bromophenol blue), and the mixture was heated at 95 for 5 min and subjected to electrophoresis on 8% SDS polyacrylamide gel at 80V for 2 hours. After the electrophoresis was complete, the separated protein was transferred to a nitrocellulose membrane (Whatman). The protein-transferred membrane was placed in a PBS solution containing 5% nonfat dry milk, and allowed to stand at room temperature for 1 hour to be blocked. Primary antibodies diluted to 1:1000 were added thereto, followed by reaction at 4 for 16 hours. The primary antibodies were polyclonal anti-eEF1A1 antibodies (Abcam, Mass., USA, Cat # ab37969 ) and anti-CD antibodies (Santa Cruz Biotechnology, Calif., USA, Cat # SC-6494 ). The secondary antibodies were horseradish peroxidase-conjugated anti-rabbit antibodies (GE healthcare, Backinghanshire, UK, Cat # NA934V). In addition, an enhanced chemiluminescence (ECL) reagent (Amersham Biosciences, Piscataway, N.J.) was used for confirmation of the reaction. Actin was used as an internal positive control, and primary antibodies were anti-actin antibodies (Santa Cruz Biotechnology, Calif., USA, Cat # SC-1616).
(§2) The signal intensity was scanned with HP Scanjet 2400 (Hewlett-Packard Company, Palo Alto, Calif., USA) and analyzed with ImageJ Program (http://rsb.info.nih.gov/ij/).
(§3) The procedure was performed in the same manner as in Section 1-6 of Example 1, except that the cell line with treatment of doxorubicin at a high dose and the cell line with treatment of doxorubicin at a low dose, each of which prepared in Section 4-1, were used. In order to confirm the occurrence of apoptosis, a level of poly(ADP-ribose) polymerase (PARP) serving as an apoptosis biomarker was detected according to Western blot analysis as in Section 1-6 of Example 1, except that polyclonal anti-PARP antibodies (Cell Signaling Technology, Mass., USA, Cat #9541) were used as primary antibodies.
(§4) The procedure was performed in the same manner as in Section 1-6 of Example 1, except that the cell line prepared in Section 6-1 was used.
(§5) P-pRb and CDK2 were used as markers of G1/S phase transition arrest. Protein levels were confirmed by Western blot analysis in the same manner as in Section 1-6 of Example 1, except that primary antibodies directed against P-pRb were Phosphoro-pRb antibodies (Cell Signaling Technology, Danvers, Mass., Cat #9308), and primary antibodies directed against CDK2 were anti-CDK2 antibodies (Santa Cruze Biotechnology, Calif., USA, Cat #SC-163).
(§6) The procedure was performed in the same manner as in Section 1-6 of Example 1, except that the cell line prepared in Section 8-1 was used. In order to detect changes in levels of LC3-II which is an autophagy biomarker, anti-LC3-II antibodies (Sigma, Mo., USA, Cat #L8919) were used as primary antibodies directed against LC3-II.

[2] = tested on: eEF1A1 (eukaryotic elongation factor 1 alpha 1); assay: Western blot analysis of eEF1A1 level, MCF7
Procedure: as §1, §2, §3, §4, §5, §6

[3] = tested on: P-pRb (phosphorylated retinoblastoma); assay: Western blot analysis of P-pRb (G1/S arrest marker), MCF7; conditions: MCF7, double thymidine treatment (15 h, 0.5 mg/mL, 8 h interval), arrested
Procedure: as §1, with “The primary antibodies were polyclonal anti-eEF1A1 antibodies (Abcam, Mass., USA, Cat # ab37969 ) and anti-CD antibodies (Santa Cruz Biotechnology, Calif., USA, Cat # SC-6494 ). The secondary antibodies were horseradish peroxidase-conjugated anti-rabbit antibodies (GE healthcare, Backinghanshire, UK, Cat # NA934V). In addition, an enhanced chemiluminescence (ECL) reagent (Amersham Biosciences, Piscataway, N.J.) was used for confirmation of the reaction. Actin was used as an internal positive control, and primary antibodies were anti-actin antibodies (Santa Cruz Biotechnology, Calif., USA, Cat # SC-1616).” left out

CDK2 = assay: Western blot analysis of CDK2 (G1/S arrest marker), MCF7; conditions: MCF7, double thymidine treatment (15 h, 0.5 mg/mL, 8 h interval), arrested
Procedure: as §1, with “The primary antibodies were polyclonal anti-eEF1A1 antibodies (Abcam, Mass., USA, Cat # ab37969 ) and anti-CD antibodies (Santa Cruz Biotechnology, Calif., USA, Cat # SC-6494 ). The secondary antibodies were horseradish peroxidase-conjugated anti-rabbit antibodies (GE healthcare, Backinghanshire, UK, Cat # NA934V). In addition, an enhanced chemiluminescence (ECL) reagent (Amersham Biosciences, Piscataway, N.J.) was used for confirmation of the reaction. Actin was used as an internal positive control, and primary antibodies were anti-actin antibodies (Santa Cruz Biotechnology, Calif., USA, Cat # SC-1616).” left out

[4] = tested on: breast cancer cell line (MCF7); assay: Senescence-associated β-galactosidase activity staining, MCF7
Procedure: The cells were washed twice with PBS and fixed with 3% formaldehyde at room temperature for 3 to 5 min. The fixed cells were washed once again with PBS, and 5 mL of a β-galactosidase activity staining solution (1 mg/mL X-Gal, 40 mM citric acid/sodium phosphate (pH 6.0), 5 mM potassium ferrocyanide, 5 mM potassium ferricyanide, 150 mM sodium chloride, and 2 mM magnesium chloride) was added thereto, followed by reaction in an incubator at 37 for 12 to 16 hours. During the reaction, the cells were cultured under light-shielding conditions by wrapping of the culture dish in silver foil.

[5] = tested on: breast cancer cell line (MCF7); assay: Microscopic examination of cell morphology, MCF7; conditions: for cell morphology: time course 0-96 hours
Procedure: In order to confirm premature senescence, characteristic morphological changes of cells in the control group and the breast cancer cell line 4 days after irradiation exposure thereof, each of which prepared in Section 1-1, were examined under a microscope (ECLIPSE TE300, Nikon).
In order to ascertain doxorubicin-induced senescence or apoptosis of a tumor cell line, the procedure was carried out in the same manner as in Section 1-2 of Example 1, except that the experiment was conducted according to a time-course schedule (0, 16, 24, 48, and 96 hours) using the cell line of Section 4-1.
Morphological changes of cells in the control group and the tamoxifen-treated group of Section 8-1 were examined under a microscope (ECLIPSE TE300, Nikon).

[6] = tested on: poly(ADP-ribose) polymerase (PARP); assay: Western blot analysis of PARP cleavage (apoptosis biomarker), MCF7; conditions: MCF7, high dose (10 μg/mL)
Procedure: (§7) The breast cancer cell line (MCF7) of Section 1-1, taken 4 days after irradiation exposure was applied to the cells, was washed with PBS, and the cell sample was subjected to protein extraction using a cell lysis buffer (50 mM Tri-HCl, 1% NP-40, 0.25% sodium deoxycholate, 150 mM NaCl, 1 mM PMSF, 50 mM NaF, 0.2 mM Na3VO4, 10 g/mL aprotinin, and 2 g/mL leupeptin). The extracted protein was centrifuged at 11,000 rpm for 10 min. The supernatant was collected and subjected to quantitative analysis using Bradford protein assay (Bradford, M., Anal. Biochem. 72:248-254 (1976)). […]
as §3

[7] = tested on: lung cancer cell line H460; assay: Microscopic examination of cell morphology, H460; conditions: 96 hours
Procedure: In order to ascertain doxorubicin-induced senescence or apoptosis of a tumor cell line, the procedure was carried out in the same manner as in Section 1-2 of Example 1, except that the experiment was conducted 96 hours after treatment of doxorubicin on the cell line of Section 5-1.

CD (cathepsin D) [8] = assay: Western blot analysis of CD level, H460
Procedure: as §7
as §3, with “antibodies. […]” for “antibodies.”

[9] = tested on: eEF1A1 (eukaryotic elongation factor 1 alpha 1); assay: Western blot analysis of eEF1A1 level, H460
Procedure: as §7
as §3, with “antibodies. […]” for “antibodies.”

LC3-II = assay: Western blot analysis of LC3-II (autophagy biomarker), MCF7; conditions: MCF7, tamoxifen 10 μmol/L for 2 days
Procedure: as §1, with “The primary antibodies were polyclonal anti-eEF1A1 antibodies (Abcam, Mass., USA, Cat # ab37969 ) and anti-CD antibodies (Santa Cruz Biotechnology, Calif., USA, Cat # SC-6494 ). The secondary antibodies were horseradish peroxidase-conjugated anti-rabbit antibodies (GE healthcare, Backinghanshire, UK, Cat # NA934V). In addition, an enhanced chemiluminescence (ECL) reagent (Amersham Biosciences, Piscataway, N.J.) was used for confirmation of the reaction. Actin was used as an internal positive control, and primary antibodies were anti-actin antibodies (Santa Cruz Biotechnology, Calif., USA, Cat # SC-1616).” left out

[10] = MCF7, double thymidine block, arrested at G1/S
[11] = MCF7, released from DTB, additional 48 h
[12] = MCF7, camptothecin 40 nM, etoposide 30 μM
[13] = MCF7, camptothecin 40 nM, etoposide 30 μM, control group (Con)=1
[14] = MCF7, Day 4, Day 0=1, ImageJ scanning, dose not restated (senescence, low dose implied)
[15] = MCF7, high dose (10 μg/mL), apoptotic conditions
[16] = MCF7, low-dose doxorubicin (50 ng/mL)
[17] = H460, high-dose doxorubicin (10 μg/mL), apoptosis
[18] = H460, low-dose doxorubicin (50 ng/mL)
[19] = MCF7, tamoxifen 10 μmol/L for 2 days, autophagy

## Cc1cn([C@H]2C[C@H](O)[C@@H](CO)O2)c(=O)[nH]c1=O [DTB, thymidine]
CD (cathepsin D) [1]; [10]
  protein level of CD (Western blot): No significant alteration
CD (cathepsin D) [1]; [11]
  CD level (Western blot): did not exhibit any alteration
[2]; [10]
  protein level of eEF1A1 (Western blot): No significant alteration
[2]; [11]
  eEF1A1 level (Western blot): did not exhibit any alteration
[3]
  phosphorylated pRb level (Western blot): decrease
CDK2
  CDK2 level (Western blot): accumulation

## CC[C@@]1(O)C(=O)OCc2c1cc1n(c2=O)Cc2cc3ccccc3nc2-1 [camptothecin]
[4]; MCF7, camptothecin 40 nM, etoposide 30 μM, versus control group
  senescence-associated β-galactosidase activity staining: exhibited characteristics of premature senescence
CD (cathepsin D) [1]; [12]
  level of CD (Western blot): increases
CD (cathepsin D) [1]; [13]
  CD band signal intensity, relative: 7.46
[2]; [12]
  level of eEF1A1 (Western blot): decreases
[2]; [13]
  eEF1A1 band signal intensity, relative: 0.73

## COc1cccc2c1C(=O)c1c(O)c3c(c(O)c1C2=O)C[C@@](O)(C(=O)CO)C[C@@H]3O[C@H]1C[C@H](N)[C@H](O)[C@H](C)O1 [doxorubicin]
[5]; MCF7, high dose (10 μg/mL)
  cell morphology: apoptosis-specific morphological changes
[5]; MCF7, low dose (50 ng/mL)
  cell morphology: senescence-specific morphological changes
[4]; MCF7, 4 days after treatment of doxorubicin (50 ng/mL)
  SA-β-gal staining: positive SA-β-gal staining
CD (cathepsin D) [1]; [14]
  CD band signal intensity, relative: 2.45
CD (cathepsin D) [1]; [15]
  protein level of CD (Western blot): gradually decreased
CD (cathepsin D) [1]; [16]
  level of CD (Western blot): increases
[2]; [14]
  eEF1A1 band signal intensity, relative: 0.53
[2]; [15]
  protein level of eEF1A1 (Western blot): remained unaltered
[2]; [16]
  level of eEF1A1 (Western blot): decreases
[6]
  PARP cleavage (apoptotic marker): induced
[7]; H460, high dose (10 μg/mL)
  cell morphology: apoptosis-specific morphological changes
[7]; H460, low dose (50 ng/mL)
  cell morphology: senescence-specific morphological changes
CD (cathepsin D) [8]; [17]
  level of CD (Western blot): no changes
CD (cathepsin D) [8]; [18]
  level of CD (Western blot): increases
[9]; [17]
  level of eEF1A1 (Western blot): no changes
[9]; [18]
  level of eEF1A1 (Western blot): decreases

## COc1cc([C@@H]2c3cc4c(cc3[C@@H](O[C@@H]3O[C@@H]5CO[C@@H](C)O[C@H]5[C@H](O)[C@H]3O)[C@H]3COC(=O)[C@H]23)OCO4)cc(OC)c1O [etoposide]
CD (cathepsin D) [1]; [12]
  level of CD (Western blot): increases
[2]; [12]
  level of eEF1A1 (Western blot): decreases

## CC/C(=C(\c1ccccc1)c1ccc(OCCN(C)C)cc1)c1ccccc1 [tamoxifen]
[5]; MCF7, tamoxifen 10 μmol/L for 2 days
  cell morphology (autophagy): occurrence of autophagy
CD (cathepsin D) [1]; [19]
  level of CD (Western blot): decreased
[2]; [19]
  level of eEF1A1 (Western blot): decreased
LC3-II
  level of LC3-II (Western blot): increased level
